row,SMILES,melting point [°C]
1,O=C(CC1CCCCC1)Nc1c(Cl)ccc2nc(N3CC[C@@H](O)C3)ccc12,219 to 221
2,Cn1c(=O)c(-c2c(Cl)cccc2Cl)cc2cnc(Nc3ccc(CCCC(=O)O)cc3)nc21,169 to 171
3,COC(=O)c1ncc(O)c2c1[nH]c1ccccc12,241 to 242
4,Fc1ccc(C2NCCc3c2[nH]c2ccccc32)cc1F (stereo unspecified),151
5,Cc1cccc(Cc2ccc(-c3cnn4c(O)ncnc34)cc2C)c1,259 to 262
6,O=C1Nc2ccccc2C(c2ccccc2)=NC1NC(=S)c1cccc(C(F)(F)F)c1 (racemic),230 to 232
7,Cn1cc(Sc2ccccc2)c(=O)c(-c2ccccc2)c1,164 to 165
8,O=C1OC2(CCC2)C(O)=C1c1ccccc1,188 to 189
9,ClCc1cnc(Cl)cc1Cl,55 to 56
10,CCn1cc(C(=O)O)c(=O)c2ccc(-n3cccc3)cc21,235 to 238
11,COc1ccc(CN(C)CCCOc2ccc(NC(=O)c3cccc4c(=O)c5ccccc5[nH]c34)c(C)c2)cc1OC,145 to 150
12,Cc1c(NC(=O)c2ccc(-c3ccc4c(c3)CCO4)cc2F)ccc2cc(CN3CCCCC3)cnc12,202 to 203
13,COc1cc(OCc2ccccc2)ccc1S(=O)(=O)Cl,95
14,CCOP(=O)(/C=C/C=C/c1cn(-c2ccccc2)nc1OCc1ccc(OCc2nc(-c3ccco3)oc2C)c(OC)c1)OCC,143 to 144
15,CN(c1ccc(Cl)cc1)C1CCN(c2ccc(OC[C@@]3(C)Cn4cc([N+](=O)[O-])nc4O3)cc2)CC1,174 to 175
16,O=C(NCCCOc1ccc(-n2ccnc2)cc1)c1ccc(Br)cc1,183 to 185
17,CN1CCCC1CCNc1ncc2c(c1C#N)-c1ccccc1C(c1ccc(Cl)c(Cl)c1)C2 (stereo unspecified),131 to 134
18,O=c1nc(Nc2ccc(I)cc2)sc2ncccc12,263 to 264
19,COc1ccc2c(SC(C)(C)C)c(C(C)C(C)(C)C(=O)O)[nH]c2c1 (stereo unspecified),133
20,Cc1cccc2c1C(=O)N(CO)S2(=O)=O,196 to 198
21,O=C(O)c1cc2ccc(C3OC(CO)C(O)C(O)C3O)cc2oc1=O (stereo unspecified),250 to 255
22,CSc1ncc(C)c(=O)[nH]1,238 to 239
23,O=C(N[C@H](Cc1ccc(C(F)(F)F)cc1)[C@@H](O)c1ccc(F)c(F)c1)c1ccc(F)c2ccccc12 (racemic),197 to 198
24,CCCc1nc2c(N)nc3cc(Oc4ccc(C#N)cc4)ccc3c2n1CC(C)C,223 to 225
25,N#CCCC(=O)c1ccncc1,53.5 to 55
26,CCN(CC)C(=O)n1nc(NC)n(C)c1=O,83 to 85

row,SMILES,melting point [°C]
1,CCNc1nc(NC(C)C)nc(OC)n1,95 to 96
2,Cc1ccc(-c2ccc3c(c2)C=C(C(=O)N[C@H]2CC[C@H](CN(C)C4CCOCC4)CC2)CCO3)cc1,144 to 146
3,O=C(NCCSCc1ccccc1)c1c(Cl)cccc1Cl,96 to 97
4,CC(C)(C)c1cc(S)n2ncnc2n1,285 to 286
5,CC1(C)OC(=O)Nc2ccc(I)cc21,196 to 197
6,O=C(O)c1cc(=O)c2cc3[nH]c(=O)oc3cc2[nH]1,> 300
7,N#Cc1ccc2c(c1)OC(=O)C(Br)C2Br (stereo unspecified),220 to 230
8,Nc1nc2c(s1)CCN(CC1CC1c1ccccc1)CC2 (stereo unspecified),109 to 113
9,CS(=O)(=O)C(S(C)(=O)=O)S(=O)(=O)O,> 300
10,COC(=O)C1=C(C)Nc2nc(N3CCOCC3)nc(N3CCOCC3)c2C1c1ccc([N+](=O)[O-])cc1 (stereo unspecified),236
11,C=CS(=O)(=O)CC(COCCCCCCCCCCCCCCCCCC)OC (stereo unspecified),47 to 49
12,Cc1c(CN2C(=O)c3ccccc3C2=O)cccc1C(F)(F)C(F)(F)c1ccccc1,135 to 137
13,COc1ccc(C(=CC(=O)N2CCOCC2)c2ccc(Cl)nc2)cc1OC,154 to 160
14,N#Cc1cc(C(=O)NNC(=O)c2occc2-c2ccccc2OCc2ccccc2)ccc1O,118 to 120
15,Cc1n[nH]c(=O)c(-c2c(F)cc(F)cc2F)c1-c1ccc2ccccc2c1,266 to 268
16,O=C(CCCCSc1nc(-c2ccccc2)c(-c2ccccc2)[nH]1)NCCOCCO,176 to 178
17,O=C(NCCCCCNC(=O)c1ccc(OC(F)(F)F)cc1)c1ccc(OC(F)(F)F)cc1,154 to 155
18,NC(=O)CNC(=O)c1cccc(-c2ccc(Cl)c3cc(Cc4cc(F)cc(Cl)c4)sc23)c1,204 to 205
19,CCOC(=O)c1ccc(CCN2CCN(S(=O)(=O)c3ccccc3)CC2)cc1,156 to 157
20,Cc1c2c3c(nc(N)c2nn1C)CCCC3,258 to 259
21,CS(=O)(=O)c1ccc(-c2nn(Cc3ccccc3)c(=S)cc2-c2ccc(F)cc2)cc1,182
22,CCOC(=O)c1nc(-c2ccc(OC)cc2)oc1C,74 to 76
23,O=C1c2ccccc2C(O)(c2ccccc2)N1CCCN1CC=C(c2ccccc2)CC1 (stereo unspecified),123
24,CCn1cc(C(=O)O)c(=O)c2cc(F)c(N3CCNC(COc4ccccc4)C3)cc21 (stereo unspecified),198 to 200
25,CCOCC(=O)N1Cc2cc(Cl)ccc2CC(C)C1=O (stereo unspecified),123 to 124

# Reference: a melting point compilation (Tetko et al.; mined from patent text by program, amines drawn as free bases though some values may be those of a salt)
